conditions: not given

First: Clc1cc(Cl)c(Cl)c(Cl)c1Cl
Second: O=[N+]([O-])c1c(Cl)c(Cl)cc(Cl)c1Cl
The boiling point of the first is lower: 277 °C for the first, 304 °C for the second.

Compared with `CCOc1ccc(CC)cc1`, `Cc1ccc(CC=O)cc1` is higher in boiling point: 210 °C for the first, 222 °C for the second.

First: C=CC[C@H](O)CCC
Second: C=CC(CC)CC
The boiling point of the first is higher: 152 °C for the first, 84.1 °C for the second.

First: CCNC(C)=O
Second: CCOC(=O)C(C)=O
The boiling point of the first is higher: 205 °C for the first, 155 °C for the second.

Going from `COCC(=O)OC` to `CC(C)C=CC(=O)O`, the boiling point rises from 131 °C to 217 °C.

First: CC(C)(CO)CO
Second: OCCCO
The boiling point of the first is lower: 208 °C for the first, 214 °C for the second.

First: Cc1cc(C)cc(CO)c1
Second: C=CCc1cc(C)ccc1O
The boiling point of the first is lower: 220 °C for the first, 237 °C for the second.

Going from `c1ccc(Cn2ccnc2)cc1` to `CCc1cccnc1`, the boiling point falls from 310 °C to 165 °C.

First: CCCCCCCCC=O
Second: CCCCCCC=NO
The boiling point of the first is lower: 191 °C for the first, 195 °C for the second.

Going from `Oc1ccc(Br)cc1Br` to `Cc1cc(Cl)ccc1O`, the boiling point falls from 238 °C to 209 °C.

First: Cc1ccc(C)c2ccccc12
Second: CCN(CC)c1ccc(Br)cc1
The boiling point of the first is lower: 268 °C for the first, 270 °C for the second.

First: CCC(C)I (stereo unspecified)
Second: CC(C)CC(O)C(C)C (stereo unspecified)
The boiling point of the first is lower: 120 °C for the first, 158 °C for the second.

Compared with `C=CC#N`, `Oc1cc(Cl)ccc1Cl` is higher in boiling point: 77.3 °C for the first, 211 °C for the second.

Going from `CCOC(=O)c1cccc(Br)c1` to `O=Cc1ccc(Cl)cc1`, the boiling point falls from 261 °C to 214 °C.

Compared with `CC(C)(C)C1CCCCC1`, `CCCOCC` is lower in boiling point: 172 °C for the first, 63.2 °C for the second.

Compared with `Clc1cc(Cl)c(Cl)c(Cl)c1Cl`, `CCc1cccnc1` is lower in log10 Henry constant (atm·m³/mol): -3.15 for the first, -4.98 for the second.

Compared with `CCCCCCCCC=O`, `C=CC#N` is lower in log10 Henry constant (atm·m³/mol): -3.13 for the first, -3.86 for the second.

`Clc1cc(Cl)c(Cl)c(Cl)c1Cl` gave a log10 Koa of 6.49.

First: Clc1cc(Cl)c(Cl)c(Cl)c1Cl
Second: O=[N+]([O-])c1c(Cl)c(Cl)cc(Cl)c1Cl
The log10 Koc (L/kg) of the first is lower: 3.5 for the first, 4.05 for the second.

For `CCOP(=S)(Oc1ccc([N+](=O)[O-])cc1)c1ccccc1` (stereo unspecified), the log10 Koc (L/kg) was 3.12.

Compared with `Clc1cc(Cl)c(Cl)c(Cl)c1Cl`, `O=[N+]([O-])c1c(Cl)c(Cl)cc(Cl)c1Cl` is higher in log10 vapour pressure (mmHg): -3 for the first, -2.74 for the second.

First: CCCCCCCCC=O
Second: CCCOCC
The log10 vapour pressure (mmHg) of the first is lower: -0.432 for the first, 2.26 for the second.

Compared with `C=CC(CC)CC`, `CCC(C)I` (stereo unspecified) is lower in log10 vapour pressure (mmHg): 1.91 for the first, 1.23 for the second.

Compared with `Cc1ccc(C)c2ccccc12`, `CCOP(=S)(Oc1ccc([N+](=O)[O-])cc1)c1ccccc1` (stereo unspecified) is lower in log10 vapour pressure (mmHg): -1.67 for the first, -6.02 for the second.

First: C=CC#N
Second: Oc1cc(Cl)ccc1Cl
The log10 vapour pressure (mmHg) of the first is higher: 2.04 for the first, -1.25 for the second.

Compared with `CCN(CCO)c1ccc(N=Nc2ccc([N+](=O)[O-])cc2)cc1`, `Cc1cc(Cl)ccc1O` is higher in log10 vapour pressure (mmHg): -13.4 for the first, -1.62 for the second.

Compared with `CCC(CO)CC(C)C` (stereo unspecified), `OCCCO` is lower in log10 vapour pressure (mmHg): -0.625 for the first, -1.36 for the second.

`CC(C)(C)C1CCCCC1` and `CCc1cccnc1` are within 0.2 log units of each other in log10 vapour pressure (mmHg): 0.368 for the first, 0.403 for the second.

Work on `Fc1cc2c(cc1F)Oc1cc(Cl)c(Cl)cc1O2` yielded a log10 vapour pressure (mmHg) of -7.76.

First: Clc1cc(Cl)c(Cl)c(Cl)c1Cl
Second: O=[N+]([O-])c1c(Cl)c(Cl)cc(Cl)c1Cl
The melting point of the first is lower: 86 °C for the first, 99.5 °C for the second.

First: CC1=C(/C=C/C(C)=C/C=C/C(C)=C/C=C/C=C(C)/C=C/C=C(C)/C=C/C2=C(C)C(=O)C(O)CC2(C)C)C(C)(C)CC(O)C1=O (stereo unspecified)
Second: Cc1cc(C)c(C(=O)O)c(C)c1
The melting point of the first is higher: 182 °C for the first, 154 °C for the second.

First: CC(C)(CO)CO
Second: OCCCO
The melting point of the first is higher: 130 °C for the first, -26.7 °C for the second.

Going from `c1ccc(Cn2ccnc2)cc1` to `O=Nc1ccccc1`, the melting point falls from 69 °C to 68.5 °C.

First: CCN(CC)c1ccc([N+](=O)[O-])cc1
Second: CCN(CC)c1ccc(Br)cc1
The melting point of the first is higher: 77.5 °C for the first, 38 °C for the second.

Compared with `Oc1ccc(Br)cc1Br`, `Cc1cc(Cl)ccc1O` is higher in melting point: 38 °C for the first, 51 °C for the second.

Going from `C=CC(CC)CC` to `CCC(C)I` (stereo unspecified), the melting point rises from -128 °C to -104 °C.

First: Cc1ccc(C)c2ccccc12
Second: O=[N+]([O-])c1cccc2ncccc12
The melting point of the first is lower: 7.6 °C for the first, 74 °C for the second.

First: O=C1CN=C(c2ccccc2)c2cc([N+](=O)[O-])ccc2N1
Second: CCOP(=S)(Oc1ccc([N+](=O)[O-])cc1)c1ccccc1 (stereo unspecified)
The melting point of the first is higher: 225 °C for the first, 36 °C for the second.

First: O=S(=O)(c1ccc(O)cc1)c1ccc(O)cc1
Second: Oc1ccc(S)cc1
The melting point of the first is higher: 240 °C for the first, 29.5 °C for the second.

First: C(=NC1CCCCC1)=NC1CCCCC1
Second: CC(C)(C)C1CCCCC1
The melting point of the first is higher: 34.5 °C for the first, -41.2 °C for the second.

Going from `CN(C(=O)CN(CCO)CC(=O)N(C)C(C)(C)Cc1ccccc1)C(C)(C)Cc1ccccc1` to `CCN(CCO)c1ccc(N=Nc2ccc([N+](=O)[O-])cc2)cc1`, the melting point rises from 104 °C to 161 °C.

Compared with `CCOC(=O)C(C)=O`, `CCCOCC` is lower in melting point: -50 °C for the first, -128 °C for the second.

Compared with `CCOC(=O)c1cnc2cc(OCC(C)C)c(OCC(C)C)cc2c1O`, `CCC(Oc1c(I)cc(I)cc1I)C(=O)O` (stereo unspecified) is lower in melting point: 290 °C for the first, 124 °C for the second.

Compared with `C=CC#N`, `CC(C)C=CC(=O)O` is higher in melting point: -83.5 °C for the first, 35 °C for the second.

Compared with `CNc1ccc([N+](=O)[O-])cc1`, `Cc1ccc(CC=O)cc1` is lower in melting point: 152 °C for the first, 40 °C for the second.

Compared with `CC(C)(C)c1nnc(NS(=O)(=O)c2ccc(N)cc2)s1`, `O=Cc1ccc(Cl)cc1` is lower in melting point: 222 °C for the first, 47.5 °C for the second.

First: O=C1CCCCC1Cl (stereo unspecified)
Second: Oc1cc(Cl)ccc1Cl
The melting point of the first is lower: 23 °C for the first, 59 °C for the second.

Compared with `Fc1cc2c(cc1F)Oc1cc(Cl)c(Cl)cc1O2`, `COc1cc(O)c2c(=O)c3cc(O)ccc3oc2c1` is higher in melting point: 223 °C for the first, 266 °C for the second.

First: CCCCCCC=NO
Second: CCc1cccnc1
The melting point of the first is higher: 57.5 °C for the first, -76.9 °C for the second.

With `Clc1cc(Cl)c(Cl)c(Cl)c1Cl` the ready biodegradability was “not readily biodegradable”.
For `CCNC(C)=O`, the ready biodegradability was “readily biodegradable”.
For `CC(C)(CO)CO`, the ready biodegradability was “not readily biodegradable”.
With `NCC(=O)O` the ready biodegradability was “readily biodegradable”.
For `Cc1ccc(O)cc1[N+](=O)[O-]`, the ready biodegradability was “not readily biodegradable”.
For `Oc1ccc(Br)cc1Br`, the ready biodegradability was “not readily biodegradable”.
With `O=S(=O)(c1ccc(O)cc1)c1ccc(O)cc1` the ready biodegradability was “not readily biodegradable”.
For `C(=NC1CCCCC1)=NC1CCCCC1`, the ready biodegradability was “not readily biodegradable”.
In the case of `CCOP(=S)(Oc1ccc([N+](=O)[O-])cc1)c1ccccc1` (stereo unspecified), the ready biodegradability is reported as “not readily biodegradable”.
For `C=CC#N`, the ready biodegradability was “readily biodegradable”.
In the case of `Cc1cc(Cl)ccc1O`, the ready biodegradability is reported as “not readily biodegradable”.
For `Oc1cc(Cl)ccc1Cl`, the ready biodegradability was “not readily biodegradable”.

`Cc1ccc(C)c2ccccc12` showed a log10 biodegradation half-life (days) of 1.18.

same assay, conditions: fish

Going from `Nc1ccncc1` to `Cc1ccccc1S(N)(=O)=O`, the log10 BCF falls from 0.66 to 0.41.

First: Clc1c(Cl)c(Cl)c2c(oc3c(Cl)c(Cl)c(Cl)c(Cl)c32)c1Cl
Second: Clc1cc(Cl)c(Cl)c(Cl)c1Cl
The log10 BCF of the first is lower: 2.89 for the first, 3.75 for the second.

First: C=CCCCCCCC
Second: CC(C)(CO)CO
The log10 BCF of the first is higher: 3.17 for the first, 0.67 for the second.

`BrC(Br)Br` and `Cc1ccc(O)cc1[N+](=O)[O-]` are within 0.2 log units of each other in log10 BCF: 1.13 for the first, 1 for the second.

First: CCOP(=S)(Oc1ccc([N+](=O)[O-])cc1)c1ccccc1 (stereo unspecified)
Second: O=Cc1ccc(Cl)cc1
The log10 BCF of the first is higher: 2.97 for the first, 0.32 for the second.

Going from `O=[N+]([O-])c1c(Cl)c(Cl)cc(Cl)c1Cl` to `Oc1cc(Cl)ccc1Cl`, the log10 BCF falls from 3.23 to 1.01.

Compound `Cc1cc(Cl)ccc1O` has a log10 BCF of 1.33.

First: Clc1c(Cl)c(Cl)c2c(oc3c(Cl)c(Cl)c(Cl)c(Cl)c32)c1Cl
Second: Clc1cc(Cl)c(Cl)c(Cl)c1Cl
The log10 biotransformation half-life (days) of the first is lower: 1.22 for the first, 1.87 for the second.

Going from `C=CCCCCCCC` to `CCCCc1ccc2cc(C)c(C)cc2c1`, the log10 biotransformation half-life (days) falls from 0.52 to 0.24.

`Cc1ccccc1S(N)(=O)=O` and `Cc1cc(Cl)ccc1O` are within 0.2 log units of each other in log10 biotransformation half-life (days): -0.89 for the first, -0.83 for the second.

`BrC(Br)Br` and `Cc1ccc(O)cc1[N+](=O)[O-]` are within 0.2 log units of each other in log10 biotransformation half-life (days): -0.7 for the first, -0.8 for the second.

Going from `O=[N+]([O-])c1c(Cl)c(Cl)cc(Cl)c1Cl` to `O=Cc1ccc(Cl)cc1`, the log10 biotransformation half-life (days) falls from 0.49 to 0.01.

Reference: the OPERA property sets (Mansouri et al. 2018)
